Assay results taken from PMC6968633, “Synthesis, antibacterial and anticancer activity, and docking study of aminoguanidines containing an alkynyl moiety” (Journal of Enzyme Inhibition and Medicinal Chemistry, 2019).
≈ marks a conversion by molar mass, not a printed value.

Columns and labels:
[1] = tested on: Methicillin-resistant S. aureus ATCC 33591; assay: Bactericidal time-kill assay; assay type: cell-based, Staphylococcus aureus; conditions: MRSA; for nature of antibacterial effect in time-kill assay: 1 × MIC and 2 × MIC
Procedure: Methicillin-resistant S. aureus ATCC 33591 grown in MHB was used to determine time-kill kinetics. Bacterial suspensions (10^5 CFU/mL) containing test compounds (norflocaxin, compound 3g) at final concentrations of 1 × MIC and 2 × MIC were incubated at 37 °C with shaking. Aliquots (10 μL) were removed from the cultures after 0, 0.5, 1, 2, 3, 4, 6, 8 and 12 h, serially diluted 1000-fold in nutrient solution, and plated onto sterile Mueller-Hinton agar medium. Plates were then incubated for 24 h at 37 °C, the number of CFU was counted, and the total bacterial log10 CFU/mL was determined.

[2] = tested on: Staphylococcus aureus ATCC 43300; assay: Antibacterial MIC, multidrug-resistant clinical isolate; assay type: cell-based; conditions: Staphylococcus aureus, ATCC43300; multidrug-resistant S. aureus ATCC 43300; read-out: MIC
Procedure: (§1) Test bacteria were grown to mid-log phase in Mueller–Hinton broth (MHB) or Tryptone Soya Broth (TSB) and diluted 1000-fold in the same medium. Bacteria (10^5 CFU/mL) were inoculated into MHB or TSB and dispensed at 0.2 ml/well into a 96-well microtiter plate. As positive controls, gatifloxacin, moxifloxacin, norfloxacin, oxacillin, and penicillin were used. […] Bacterial growth was determined by measuring the absorption at 630 nm using a microplate reader. All experiments were carried out three times.
(§2) The evaluation of antibacterial activity of all compounds (3a–3j and 6a–6k) was performed by a serial dilution method to determine the MIC against a panel of pathogens comprising five Gram-positive strains (S. aureus (CMCC(B) 26003 and CMCC 25923), Streptococcus mutans BNCC 336931, Enterococcus faecalis CMCC 29212, and Bacillus subtilis CMCC 63501), four Gram-negative strains (E. coli (CMCC 25922 and CMCC 44568) and P. aeruginosa (CMCC 27853 and CMCC 10104)), as well as three methicillin-resistant clinical isolates (S. aureus ATCC 43300 and ATCC 33591, P. aeruginosa ATCC BAA-2111). The results are described in Tables 1 and 2. Gatifloxacin, moxifloxacin, norfloxacin, oxacillin, and penicillin were used as positive controls.

[3] = tested on: Staphylococcus aureus ATCC 33591; assay: as above; assay type: cell-based; conditions: Staphylococcus aureus, ATCC33591; multidrug-resistant S. aureus ATCC 33591; read-out: MIC
Procedure: as §1, §2

[4] = tested on: Pseudomonas aeruginosa ATCC BAA-2111; assay: as above; assay type: cell-based; conditions: ATCCBAA2111, multidrug-resistant P. aeruginosa ATCC BAA-2111
Procedure: as §1, §2

SGC7901 = assay: Cytotoxicity, CCK-8 assay; assay type: cell-based; conditions: Homo sapiens, SGC-7901, SGC7901 gastric cancer cells, 48 h
Procedure: (§3) A lung cancer cell line (A549), gastric cancer cell line (SGC7901) and human hepatocytes (L02) were used to test the anticancer activity and cytotoxicity of the new compounds. 5-Fluorouracil (5-FU) was used as the positive control against cancer cell lines. The A549, SGC7901 and L02 cells were grown in Dulbecco’s modified Eagle’s medium (DMEM) supplemented with 10% foetal bovine serum (FBS) and antibiotics (100 U/mL penicillin-streptomycin). Cells at 80–90% confluence were split by trypsin (0.25% in PBS; pH 7.4), and the medium was changed at 24 h intervals. The cells were cultured at 37 °C in a 5% CO2 incubator. The cells were passaged three times, then approximately 1 × 10^4 cells were seeded into each well of a 96-well plate and allowed to incubate to allow attachment of the cells to the surface. After 24 h, the medium was replaced with DMEM supplemented with 10% FBS containing various concentrations (0.1, 0.3, 1, 3, 10, and 30 μg/mL) of test compounds. Each concentration was tested in triplicate. After 48 h treatment, 20 µL of CCK-8 solution was added to each well and the optical density measured at 450 nm after 3 h using a microplate reader. The IC50 values were defined as the concentrations inhibiting 50% of cell growth.

A549 = assay: Cytotoxicity, CCK-8 assay; assay type: cell-based; conditions: Homo sapiens, A549 lung cancer cells, 48 h
Procedure: as §3

L02 = assay: Cytotoxicity, CCK-8 assay, normal cell line; assay type: cell-based; conditions: L02 normal human hepatocytes, 48 h
Procedure: as §3

[5] = tested on: Enterococcus faecalis CMCC 29212; assay: Antibacterial MIC, serial dilution; assay type: cell-based; conditions: Enterococcus faecalis, CMCC29212; E. faecalis CMCC 29212, 24 h, 37 °C; read-out: MIC
Procedure: as §1, §2

[6] = tested on: Streptococcus mutans BNCC 336931; assay: Antibacterial MIC, serial dilution; assay type: cell-based; conditions: Streptococcus mutans, BNCC336931; S. mutans BNCC 336931, 24 h, 37 °C; read-out: MIC
Procedure: as §1, §2

[7] = tested on: Bacillus subtilis CMCC 63501; assay: Antibacterial MIC, serial dilution; assay type: cell-based; conditions: Bacillus subtilis, CMCC63501; B. subtilis CMCC 63501, 24 h, 37 °C; read-out: MIC
Procedure: as §1, §2

[8] = tested on: Pseudomonas aeruginosa CMCC 10104; assay: Antibacterial MIC, serial dilution; assay type: cell-based; conditions: Pseudomonas aeruginosa, CMCC10104; P. aeruginosa CMCC 10104, 24 h, 37 °C; read-out: MIC
Procedure: as §1, §2

[9] = tested on: Escherichia coli CMCC 25922; assay: Antibacterial MIC, serial dilution; assay type: cell-based; conditions: Escherichia coli, CMCC25922; E. coli CMCC 25922, 24 h, 37 °C; read-out: MIC
Procedure: as §1, §2

[10] = tested on: Pseudomonas aeruginosa CMCC 27853; assay: Antibacterial MIC, serial dilution; assay type: cell-based; conditions: Pseudomonas aeruginosa, CMCC27853; P. aeruginosa CMCC 27853, 24 h, 37 °C; read-out: MIC
Procedure: as §1, §2

[11] = tested on: Escherichia coli CMCC 44568; assay: Antibacterial MIC, serial dilution; assay type: cell-based; conditions: Escherichia coli, CMCC44568; E. coli CMCC 44568, 24 h, 37 °C; read-out: MIC
Procedure: as §1, §2

[12] = tested on: Staphylococcus aureus CMCC(B)26003; assay: Antibacterial MIC, serial dilution; assay type: cell-based; conditions: Staphylococcus aureus; S. aureus CMCC(B)26003, 24 h, 37 °C; read-out: MIC
Procedure: as §1, §2

[13] = tested on: Staphylococcus aureus CMCC 25923; assay: Bacterial resistance development, serial passaging at sub-MIC; assay type: cell-based; conditions: S. aureus, passaging at MIC/2, 20 passages
Procedure: (§4) To evaluate the propensity for developing bacterial resistance, one of the compounds with high antibacterial activity (3g) was used. The initial MIC values of 3g were determined against bacteria Staphylococcus aureus CMCC 25923 and Escherichia coli CMCC 44568, using norfloxacin and colistin, respectively, as antibiotic controls. Subsequently, serial passaging was initiated by transferring bacterial suspension grown at the sub-MIC of the compound/antibiotics (MIC/2) to a new plate and subjecting it to another assay to determine the (new) MIC. After 22 h incubation, cells grown at the sub-MIC of the test compound/antibiotics were once again transferred and the MIC determined. The process was repeated for 20 or 30 passages for S. aureus and E. coli, respectively. The MIC for 3g, norfloxacin and colistin was plotted as a function of time in days (number of passages) to determine the propensity of bacterial resistance development.
(§5) Bacterial resistance against most antibiotics presents a major problem of current times. Therefore, it is crucial to evaluate the potential emergence of bacterial resistance against these biocides. […] Norfloxacin, an antibiotic generally used to treat the Gram-positive infections, was used as a positive control for S. aureus, whereas colistin, a lipopeptide antibiotic active against Gram-negative bacteria, was used as a positive control for E. coli. These antibacterial agents were repeatedly challenged against bacteria at their sub-MIC values to allow bacteria to develop resistance. Resistance is usually defined as a > 4-fold increase in the original MIC[32].

[14] = tested on: Escherichia coli CMCC 44568; assay: as above; assay type: cell-based; conditions: E. coli, passaging at MIC/2
Procedure: as §4, §5

[15] = tested on: Staphyiococcus aureus CMCC 25923; assay: Antibacterial MIC, serial dilution; assay type: cell-based, Staphylococcus aureus; conditions: Staphylococcus aureus, CMCC25923; S. aureus CMCC 25923, 24 h, 37 °C; read-out: MIC
Procedure: as §1, §2

Compound | nature of antibacterial effect in time-kill assay [1] | MIC [2] [µg/mL] | MIC [3] [µg/mL] | MIC [4] [µg/mL] | MIC [5] [µg/mL] | MIC [6] [µg/mL] | MIC [7] [µg/mL] | MIC [8] [µg/mL] | MIC [9] [µg/mL] | MIC [10] [µg/mL] | MIC [11] [µg/mL] | MIC [12] [µg/mL] | increase in MIC on serial passaging [13] | MIC [15] [µg/mL] | other results
N=C(N)NN=Cc1ccc(C#Cc2ccc(Cl)cc2)cc1 [Compound 3g, 2-(4-((4-Chlorophenyl)ethynyl)benzylidene)hydrazine-1-carboximidamide] | rapidly bactericidal | 1 (≈ 3.37 µM) | 0.5 (≈ 1.68 µM) | 4 (≈ 13.5 µM) | 0.5 (≈ 1.68 µM) | 0.5 (≈ 1.68 µM) | 0.25 (≈ 0.842 µM) | 1 (≈ 3.37 µM) | 2 (≈ 6.74 µM) | > 128 | 2 (≈ 6.74 µM) | 0.5 (≈ 1.68 µM) | little change | 0.5 (≈ 1.68 µM) | persistence of bactericidal activity ([1]; 2 × MIC): 12 h; reduction of bacterial count ([1]; 2 × MIC, after 2 h, start 5.5 log10 CFU/mL): > 5 log10 CFU/mL; IC50 (SGC7901): 1.01 µg/mL (≈ 3.4 µM); IC50 (A549): 4.42 µg/mL (≈ 14.9 µM); IC50 (L02): 20.9 µg/mL (≈ 70.3 µM); melting point: 232 to 234 °C; increase in MIC on serial passaging [14]: little change
CCn1cc(C(=O)O)c(=O)c2cc(F)c(N3CCNCC3)cc21 [Norfloxacin, reference compound] | bacteriostatic, not bactericidal | 0.5 (≈ 1.57 µM) | 0.25 (≈ 0.783 µM) | 1 (≈ 3.13 µM) | 1 (≈ 3.13 µM) | 16 (≈ 50.1 µM) | 2 (≈ 6.26 µM) | 4 (≈ 12.5 µM) | 0.125 (≈ 0.391 µM) | 2 (≈ 6.26 µM) | 0.125 (≈ 0.391 µM) | 0.125 (≈ 0.391 µM) | approximately 32 fold | 0.125 (≈ 0.391 µM) | –
